Test results reported in patent publication EP0195841A1, “Quinolinecarboxylic acid derivatives and process for their preparation” (KYORIN PHARMACEUTICAL CO., LTD., priority 1985, dated 1986).
Converted amounts (≈) assume the structure as drawn.

Columns and labels:
Test in all cases: Antibacterial spectra, MIC by standard method of Japan Society of Chemotherapy
Format in all cases: cell-based
[1] = system: Bacillus subtilis PCI 219; conditions: 10^6 cells/ml
[2] = system: Staphylococcus aureus 209 P; conditions: Gram +, 10^6 cells/ml
[3] = system: S. aureus IID 670 (Terajima); conditions: 10^6 cells/ml
[4] = system: S. epidermidis IID 866; conditions: 10^6 cells/ml
[5] = system: Streptococcus pyogenes IID 692; conditions: 10^6 cells/ml
[6] = system: S. pyogenes IID 689 (S-8); conditions: 10^6 cells/ml
[7] = system: S. faecalis IID 682; conditions: 10^6 cells/ml
[8] = system: S. pneumoniae 2054; conditions: Gram +, 10^6 cells/ml
[9] = system: E. coli NIHJ JC-2
[10] = system: E. coli ATCC 10536; conditions: 10^6 cells/ml
[11] = system: Proteus vulgaris IFO 3167; conditions: Proteus vulgaris IFO 3167, Gram −, 10^6 cells/ml
[12] = system: P. mirabilis IID 994; conditions: 10^6 cells/ml
[13] = system: P. morganii IID 602; conditions: 10^6 cells/ml
[14] = system: Klebsiella pneumoniae KY 6445; conditions: 10^6 cells/ml
[15] = system: Enterobacter cloacae IID 977; conditions: 10^6 cells/ml
[16] = system: Citrobacter freundii IID 976; conditions: 10^6 cells/ml
[17] = system: Serratia marcescens IID 618; conditions: 10^6 cells/ml
[18] = system: Shigella sonnei IID 969; conditions: 10^6 cells/ml
Procedure: Experiment 1. Antibacterial spectra
Antibacterial activity was determined with the standard method recommended by Japan Society of Chemotherapy.

[19] = system: Salmonella enteritidis IID 604; conditions: Gram −, 10^6 cells/ml
[20] = system: Pseudomonas aeruginosa V-1; conditions: 10^6 cells/ml
[21] = system: Pseudomonas aeruginosa IFO 12689; conditions: 10^6 cells/ml
[22] = system: Yersinia enterocolitica IID 981; conditions: 10^6 cells/ml
[23] = system: Acinetobacter anitratus IID 876; conditions: 10^6 cells/ml
[24] = system: Alcaligenes faecalis 0104002; conditions: Gram −, 10^6 cells/ml, read-out: Minimum Inhibitory Concentration
[25] = system: Bacteroides fragilis GM 7000; conditions: 10^6 cells/ml
[26] = system: Bacteroides fragilis 0558; conditions: Gram −, 10^6 cells/ml, read-out: Minimum Inhibitory Concentration
[27] = system: Bacteroides fragilis 25285; conditions: Gram −, 10^6 cells/ml
[28] = read-out: Minimum Inhibitory Concentration

CN1CCN(c2c(F)cc3c(=O)c(C(=O)O)cn(C4CC4)c3c2F)CC1 [Reference- 2, 1-Cyclopropyl-6,8-difluoro-1,4-dihydro-7-(4-methyl-1-piperazinyl)-4-oxoquinoline-3-carboxylic acid, reference compound]
ratio of activity per that of Ciprofloxacin (bracketed number) ([1]; Gram +): 1
MIC ([1]; PCI219, Gram +, read-out: Minimum Inhibitory Concentration): 0.05 µg/mL (≈ 0.138 µM)
ratio of activity per that of Ciprofloxacin (bracketed number) [2]: 4
MIC [2, 28]: 0.1 µg/mL (≈ 0.275 µM)
ratio of activity per that of Ciprofloxacin (bracketed number) ([3]; Gram +): 2
MIC ([3]; Staphylococcus aureus, IID670, Gram +, read-out: Minimum Inhibitory Concentration): 0.2 µg/mL (≈ 0.55 µM)
ratio of activity per that of Ciprofloxacin (bracketed number) ([4]; Gram +): 2
MIC ([4]; Staphylococcus epidermidis, IID866, Gram +, read-out: Minimum Inhibitory Concentration): 0.2 µg/mL (≈ 0.55 µM)
ratio of activity per that of Ciprofloxacin (bracketed number) ([5]; Gram +): 1
MIC ([5]; IID692, Gram +, read-out: Minimum Inhibitory Concentration): 0.78 µg/mL (≈ 2.15 µM)
ratio of activity per that of Ciprofloxacin (bracketed number) ([6]; Gram +): 0.5
MIC ([6]; Streptococcus pyogenes, IID689, Gram +, read-out: Minimum Inhibitory Concentration): 0.78 µg/mL (≈ 2.15 µM)
MIC ([7]; Enterococcus faecalis, IID682, Gram +, read-out: Minimum Inhibitory Concentration): 0.78 µg/mL (≈ 2.15 µM)
ratio of activity per that of Ciprofloxacin (bracketed number) ([7]; Gram +): 1
ratio of activity per that of Ciprofloxacin (bracketed number) [8]: 2
MIC ([8]; Streptococcus pneumoniae, read-out: Minimum Inhibitory Concentration): 0.78 µg/mL (≈ 2.15 µM)
ratio of activity per that of Ciprofloxacin (bracketed number) ([9]; E. coli NIHJ JC-2, Gram −, 10^6 cells/ml): 0.5
MIC ([9]; Escherichia coli, NIHJJC2, read-out: Minimum Inhibitory Concentration): 0.0125 µg/mL (≈ 0.0344 µM)
MIC ([10]; Escherichia coli, ATCC10536, Gram −, read-out: Minimum Inhibitory Concentration): 0.0125 µg/mL (≈ 0.0344 µM)
ratio of activity per that of Ciprofloxacin (bracketed number) ([10]; Gram −): 1
MIC ([11]; IFO3167, read-out: Minimum Inhibitory Concentration): 0.025 µg/mL (≈ 0.0688 µM)
ratio of activity per that of Ciprofloxacin (bracketed number) [11]: 0.25
ratio of activity per that of Ciprofloxacin (bracketed number) ([12]; Gram −): 0.5
MIC ([12]; Proteus mirabilis, IID994, Gram −, read-out: Minimum Inhibitory Concentration): 0.025 µg/mL (≈ 0.0688 µM)
ratio of activity per that of Ciprofloxacin (bracketed number) ([13]; Gram −): 1
MIC ([13]; Morganella morganii, IID602, Gram −, read-out: Minimum Inhibitory Concentration): 0.05 µg/mL (≈ 0.138 µM)
ratio of activity per that of Ciprofloxacin (bracketed number) ([14]; Gram −): 1
MIC ([14]; KY6445, Gram −, read-out: Minimum Inhibitory Concentration): 0.0125 µg/mL (≈ 0.0344 µM)
ratio of activity per that of Ciprofloxacin (bracketed number) ([15]; Gram −): 1
MIC ([15]; IID977, Gram −, read-out: Minimum Inhibitory Concentration): 0.05 µg/mL (≈ 0.138 µM)
ratio of activity per that of Ciprofloxacin (bracketed number) ([16]; Gram −): 0.25
MIC ([16]; IID976, Gram −, read-out: Minimum Inhibitory Concentration): 0.025 µg/mL (≈ 0.0688 µM)
ratio of activity per that of Ciprofloxacin (bracketed number) ([17]; Gram −): 1
MIC ([17]; IID618, Gram −, read-out: Minimum Inhibitory Concentration): 0.39 µg/mL (≈ 1.07 µM)
ratio of activity per that of Ciprofloxacin (bracketed number) ([18]; Gram −): 0.5
MIC ([18]; IID969, Gram −, read-out: Minimum Inhibitory Concentration): 0.0125 µg/mL (≈ 0.0344 µM)
ratio of activity per that of Ciprofloxacin (bracketed number) [19]: 0.5
MIC ([19]; Salmonella enterica, read-out: Minimum Inhibitory Concentration): 0.05 µg/mL (≈ 0.138 µM)
ratio of activity per that of Ciprofloxacin (bracketed number) ([20]; Gram −): 0.5
MIC ([20]; V1, Gram −, read-out: Minimum Inhibitory Concentration): 0.39 µg/mL (≈ 1.07 µM)
ratio of activity per that of Ciprofloxacin (bracketed number) ([21]; Gram −): 1
MIC ([21]; IFO12689, Gram −, read-out: Minimum Inhibitory Concentration): 0.39 µg/mL (≈ 1.07 µM)
ratio of activity per that of Ciprofloxacin (bracketed number) ([22]; Gram −): 1
MIC ([22]; IID981, Gram −, read-out: Minimum Inhibitory Concentration): 0.05 µg/mL (≈ 0.138 µM)
MIC ([23]; Acinetobacter calcoaceticus, IID876, Gram −, read-out: Minimum Inhibitory Concentration): 0.0125 µg/mL (≈ 0.0344 µM)
ratio of activity per that of Ciprofloxacin (bracketed number) ([23]; Gram −): 2
MIC [24]: 0.02 µg/mL (≈ 0.055 µM)
MIC ([25]; GM7000, Gram −, read-out: Minimum Inhibitory Concentration): 0.78 µg/mL (≈ 2.15 µM)
ratio of activity per that of Ciprofloxacin (bracketed number) ([25]; Gram −): 4
MIC [26]: 0.39 µg/mL (≈ 1.07 µM)
ratio of activity per that of Ciprofloxacin (bracketed number) [27]: 8
MIC [27, 28]: 0.39 µg/mL (≈ 1.07 µM)
